Measurements published in patent publication US4243672A, “5-Substituted 2-pyrroleglyoxylic acids, 5-substituted 2-pyrrolylglycines and derivatives thereof” (Pfizer Inc., priority 1978, dated 1981).
Structures can show the parent of a compound that is named as a salt.

Legend:
[1] = tested on: diaphragm tissue from fat-fed rats; assay: Pyruvate oxidation by diaphragm tissue from fat-fed rats (14C-pyruvate into CO2) in vitro; format: cell-based; conditions: Rattus norvegicus, stimulation of pyruvate oxidation, concentration 0.5 mmolar
Protocol: Diaphragm tissue is obtained from rats fed on a high fat diet similar to 'Diet B' described by Zaragoza and Felber [Horm, Metab. Res., 2, 323 (1970)]. Pyruvate oxidation by such tissue is assessed by measurement of the rate of incorporation of carbon-14 from carbon-14-labelled pyruvate into carbon dioxide in vitro, as described by Bringolf [Eur. J. Biochem., 26, 360 (1972)]. The rate of pyruvate oxidation is depressed by 50-75% compared with that by diaphragm tissue from rats fed on a normal diet. When the compounds of the invention are added to the medium, they are found to stimulate pyruvate oxidation by diaphragm tissue from fat-fed rats in a dose dependent manner.

[2] = tested on: pyruvate dehydrogenase enzyme (PDH); assay: Proportion of active pyruvate dehydrogenase (PDHa/PDHt) in hearts of fat-fed rats after dosing; format: in vivo, rat; conditions: heart, after 1.5 hours
Protocol: Rats fed on a high fat diet as in the previous test, are treated either with placebo or with the compound of formula (I) or (II) by subcutaneous or intravenous injection or by oral administration. After 1.5 hours the rat hearts are removed and homogenized under conditions which minimize changes in the proportion of the pyruvate dehydrogenase enzyme (PDH) which is present in the active form, as described by Whitehouse and Randle [Biochem. J., 134, 651 (1973)]. The total amount of enzyme present (PDHt) and the amount which is present in the active form (PDHa) are assessed by a method similar to that described by Taylor et al. [J. Biol. Chem., 248, 73 (1973)]. The fat-feeding process is found to depress the ratio PDHa/PDHt from a normal value of about 0.7 to a value in the range from 0.05 to 0.2. Treatment of fat-fed rats with the compounds of formula (I) or (II) either parenterally or orally, increases this ratio in a dose dependent manner.
The increase in the PDHa/PDHt ratio affected by various of the compounds for the Examples at the dose level indicated is shown in the following Table: The compounds were administered by subcutaneous injection except where indicated by (0) where the compounds were administered orally.

heart = assay: Myocardial blood flow and metabolism in fasted, closed-chest, anaesthetized, electrically paced beagle dogs; format: in vivo; conditions: 0.02 to 0.1 millimole/kg. intravenously
Protocol: The ability of compounds of formula (I) or (II) to reduce oxygen demand and affect the relative utilization of carbohydrate and lipid metabolites in the heart has been assessed by measuring the effect of the compounds on myocardial blood flow and metabolism in fasted, closed-chest, anaesthetized beagle dogs, with cardiac catherization to enable simultaneous sampling of coronary sinus and arterial blood to be carried out. Coronary sinus blood flow is measured by the hydrogen gas clearance technique described by Aukland et al. [Circulation Res., 14, 164 (1964)]. The heart is paced electrically at 155 beats/minute and recordings of hemodynamic parameters (blood pressure, left ventricular pressure and the first derivative of the latter) are made continuously. Control measurement of coronary blood flow are made and samples of blood taken at 40 minute intervals, both in an untreated animal and in the same animal dose with an infusion of isoprenaline (60 ng./kg./min.), which both stimulates cardiac contraction and increases plasma free fatty acid levels. The compound of formula (I) or (II) is then administered intravenously and measurements are made and samples taken again, 40 minutes and 90 minutes later. The blood samples from the artery and coronary sinus are analyzed for oxyhemoglobin, pyruvate and free fatty acid (FFA) content, differences between those of the arterial and coronary sinus blood, when multiplied by coronary blood flow, being a measure of oxygen consumption, pyruvate uptake and FFA uptake by the myocardium respectively.

[3] = 0.6 mMol/kg., administered orally (0)
[4] = 0.6 mMol/kg., subcutaneous injection
[5] = 0.3 mMol/kg., administered orally (0)
[6] = 1.2 mMol/kg., subcutaneous injection
[7] = 0.3 mMol/kg., subcutaneous injection

Question: For `NC(C(=O)O)c1ccc(CC2CC2)[nH]1` (racemic) [Example 59, DL-2-(5-Cyclopropylmethyl-2-pyrrolyl)glycine], which activation at 500 µM [1] is on record?
Answer: 29%

Question: What about the PDHa/PDHt ratio [2, 3] of the same compound?
Answer: 0.21

Question: Which activation at 500 µM [1] does the source give for `CCc1ccc(C(N)C(=O)O)[nH]1` (racemic) [Example 60, DL-2-(5-Ethyl-2-pyrrolyl)glycine] here?
Answer: 59%

Question: What about the PDHa/PDHt ratio [2, 4] of the same compound?
Answer: 0.16

Question: Which activation at 500 µM [1] does the source give for `CCCCCc1ccc(C(N)C(=O)O)[nH]1` (racemic) [Example 61, DL-2-(5-n-Pentyl-2-pyrrolyl)glycine] here?
Answer: 84%

Question: What about the PDHa/PDHt ratio [2, 3] of the same compound?
Answer: 0.13

Question: For `NC(=O)C(N)c1ccc(CC2CC2)[nH]1` (racemic) [Example 64, DL-2-(5-Cyclopropylmethyl-2-pyrrolyl)glycinamide], which activation at 500 µM [1] is on record?
Answer: 87%

Question: And the “effect on myocardial blood flow or any of the hemodynamic parameters measured” value (heart)?
Answer: no significant affect

Question: What about the myocardial glucose uptake (heart) of the same compound?
Answer: increased

Question: What about the “decrease of myocardial oxygen consumption” value (heart; in the presence of isoprenaline) of the same compound?
Answer: about 20%

Question: What about the “increase of myocardial pyruvate uptake” value (heart; presence and absence of isoprenaline, for at least 40 minutes after dosing) of the same compound?
Answer: at least 2 fold

Question: What about the PDHa/PDHt ratio [2, 4] of the same compound?
Answer: 0.27

Question: How did the activation at 500 µM [1] turn out when `CCOC(=O)C(=O)c1ccc(C)[nH]1` [Example 1, 5-Methyl-2-pyrrolylglyoxylic Acid Ethyl Ester] was run?
Answer: 32%

Question: Which activation at 500 µM [1] does the source give for `CCOC(=O)C(=O)c1ccc(C(C)(C)C)[nH]1` [Example 2] here?
Answer: 50%

Question: `CCCCc1ccc(C(=O)C(=O)OCC)[nH]1` [Example 6] was tested. Which PDHa/PDHt ratio [2, 5] did it give?
Answer: 0.23

Question: Which activation at 500 µM [1] does the source give for `CCOC(=O)C(=O)c1ccc(CC(C)C)[nH]1` [Example 9] here?
Answer: 65%

Question: How did the activation at 500 µM [1] turn out when `CCOC(=O)C(=O)c1ccc(Cc2ccccc2)[nH]1` [Example 18] was run?
Answer: 19%

Question: For `CCc1ccc(C(=O)C(=O)O)[nH]1` [Example 20, 5-Ethyl-2-Pyrrolylglyoxylic Acid], which activation at 500 µM [1] is on record?
Answer: 66%

Question: And the PDHa/PDHt ratio [2, 6]?
Answer: 0.85

Question: What does the source list for `O=C(O)C(=O)c1ccc(CC2CC2)[nH]1` [Example 21, 5-Cyclopropylmethyl-2-pyrrolylglyoxylic Acid Sodium Salt]?
Answer: activation at 500 µM [1]: 147%; PDHa/PDHt ratio [2, 7]: 0.44; PDHa/PDHt ratio [2, 4]: 0.71

Question: What does the source list for `Cc1ccc(C(=O)C(=O)O)[nH]1` [Example 22]?
Answer: activation at 500 µM [1]: 51%; PDHa/PDHt ratio [2, 6]: 0.84

Question: Which activation at 500 µM [1] does the source give for `CCCc1ccc(C(=O)C(=O)O)[nH]1` [Example 23] here?
Answer: 78%

Question: And the PDHa/PDHt ratio [2, 4]?
Answer: 0.66

Question: And the PDHa/PDHt ratio [2, 6]?
Answer: 0.82

Question: Which activation at 500 µM [1] does the source give for `CCCCc1ccc(C(=O)C(=O)O)[nH]1` [Example 24, 2-(5-n-butyl-2-pyrrolyl)glyoxylic acid] here?
Answer: 140%

Question: And the PDHa/PDHt ratio [2, 7]?
Answer: 0.42

Question: `CC(C)Cc1ccc(C(=O)C(=O)O)[nH]1` [Example 25] was tested. Which activation at 500 µM [1] did it give?
Answer: 59%

Question: What about the PDHa/PDHt ratio [2, 4] of the same compound?
Answer: 0.45

Question: And the PDHa/PDHt ratio [2, 6]?
Answer: 1.00

Question: How did the activation at 500 µM [1] turn out when `CC(C)(C)c1ccc(C(=O)C(=O)O)[nH]1` [Example 26] was run?
Answer: 31%

Question: For `CCCCCc1ccc(C(=O)C(=O)O)[nH]1` [Example 27, 2-(5-n-amyl-2-pyrrolyl)glyoxylic acid], which activation at 500 µM [1] is on record?
Answer: 157%

Question: What about the PDHa/PDHt ratio [2, 4] of the same compound?
Answer: 0.13

Question: With `CC(C)(C)Cc1ccc(C(=O)C(=O)O)[nH]1` [Example 28] as the compound, how does the activation at 500 µM [1] read?
Answer: 88%

Question: For `CCCCCCc1ccc(C(=O)C(=O)O)[nH]1` [Example 29, 2-(5-n-hexyl-2-pyrrolyl)glyoxylic acid], which activation at 500 µM [1] is on record?
Answer: 78%

Question: What about the PDHa/PDHt ratio [2, 5] of the same compound?
Answer: 0.40

Question: Which activation at 500 µM [1] does the source give for `CC(C)(C)CCc1ccc(C(=O)C(=O)O)[nH]1` [Example 30] here?
Answer: 44%

Question: For `O=C(O)C(=O)c1ccc(CCC2CCCCC2)[nH]1` [Example 31], which activation at 500 µM [1] is on record?
Answer: 125%

Question: What about the PDHa/PDHt ratio [2, 5] of the same compound?
Answer: 0.20

Question: What does the source list for `O=C(O)C(=O)c1ccc(Cc2ccccc2)[nH]1` [Example 32]?
Answer: activation at 500 µM [1]: 43%; PDHa/PDHt ratio [2, 4]: 0.16; PDHa/PDHt ratio [2, 6]: 0.83

Question: How did the activation at 500 µM [1] turn out when `O=C(O)C(=O)c1ccc(CCc2ccccc2)[nH]1` [Example 33] was run?
Answer: 69%

Question: What about the PDHa/PDHt ratio [2, 7] of the same compound?
Answer: 0.13

Question: Which results are given for `CSc1ccc(C(=O)C(=O)O)[nH]1` [Example 34]?
Answer: activation at 500 µM [1]: 53%; PDHa/PDHt ratio [2, 6]: 0.42

Question: How did the activation at 500 µM [1] turn out when `O=C(O)C(=O)c1ccc(CCC2C=CCC2)[nH]1` (centres unmarked) [Example 35] was run?
Answer: 209%

Question: What about the PDHa/PDHt ratio [2, 7] of the same compound?
Answer: 0.18

Question: Which activation at 500 µM [1] does the source give for `O=C(O)C(=O)c1ccc(CC2CCCC2)[nH]1` [Example 36] here?
Answer: 154%

Question: And the PDHa/PDHt ratio [2, 7]?
Answer: 0.20

Question: How did the activation at 500 µM [1] turn out when `O=C(O)C(=O)c1ccc(CC2CCCCC2)[nH]1` [Example 37] was run?
Answer: 124%

Question: What about the PDHa/PDHt ratio [2, 7] of the same compound?
Answer: 0.12

Question: For `O=C(O)C(=O)c1ccc(CCC2CCCC2)[nH]1` [Example 38], which activation at 500 µM [1] is on record?
Answer: 80%

Question: What about the PDHa/PDHt ratio [2, 7] of the same compound?
Answer: 0.25

Question: `CCCSc1ccc(C(=O)C(=O)OCC)[nH]1` [Example 39, 5-n-Propylthio-2-pyrrolylglyoxylic Acid Ethyl Ester] was tested. Which activation at 500 µM [1] did it give?
Answer: 44%

Question: `CCCSc1ccc(C(=O)C(=O)O)[nH]1` [Example 40, 5-n-Propylthio-2-pyrrolylglyoxylic Acid] was tested. Which activation at 500 µM [1] did it give?
Answer: 80%

Question: And the PDHa/PDHt ratio [2, 7]?
Answer: 0.27
